Several values for one entry are separate records, joined by “and”; a condition that tells them apart may be missing. Equal values may be shown once.
Experiments:
[1] = xn = mol fraction of the nth substance listed

C[NH+](CCO)CCO.O=C[O-]
101 kPa
Details | viscosity [mPa·s]
293.15 K | 708.5
298.15 K | 491.4
303.15 K | 350
313.15 K | 190
323.15 K | 124.5

CCCC
viscosity [mPa·s]
Details | 293.15 K | 313.15 K
101 kPa | 0.17 | 0.143
101.33 kPa | 0.17 | 0.143

Nc1ccccc1
Details | viscosity
293.15 K, 100 kPa | 4.407 mPa·s and 4.41 mPa·s
293.15 K, 101 kPa | 4.28 mPa·s and 4.28 mPa·s
293.15 K, 101.33 kPa | 4.404 mPa·s
293.35 K, 101 kPa | 4.26 mPa·s
298.15 K, 100 kPa | 3.737 mPa·s
298.15 K, 101.3 kPa | 3.61 mPa·s
298.15 K, 101.32 kPa | 3.773 mPa·s
298.15 K, 101.33 kPa | 3.62 mPa·s
302.4 K, 101 kPa | 5.537 mPa·s
302.75 K, 101 kPa | 3.15 mPa·s
303 K, 101 kPa | 3.097 mPa·s
303 K, 101.3 kPa | 3.111 mPa·s
303 K, 101.33 kPa | 3.036 mPa·s and 3.035 mPa·s
303.15 K, 100 kPa | 3.197 mPa·s and 3.029 mPa·s
303.15 K, 101.33 kPa | 3.078 mPa·s
308 K, 101 kPa | 2.663 mPa·s
308 K, 101.3 kPa | 2.691 mPa·s
308.1 K, 101 kPa | 2.79 mPa·s
308.15 K, 100 kPa | 2.78 mPa·s
308.15 K, 101 kPa | 2.857 mPa·s and 2.639 mPa·s
308.15 K, 101.3 kPa | 2.7 mPa·s
308.15 K, 101.33 kPa | 2.615 mPa·s
313 K, 101 kPa | 2.329 mPa·s
313 K, 101.3 kPa | 2.338 mPa·s
313.15 K, 100 kPa | 2.445 mPa·s and 2.305 mPa·s and 2.49 mPa·s
313.15 K, 101.33 kPa | 2.327 mPa·s
318 K, 101 kPa | 2.057 mPa·s
318 K, 101.3 kPa | 2.054 mPa·s
318.15 K, 100 kPa | 2.159 mPa·s
318.15 K, 101 kPa | 2.157 mPa·s and 2.047 mPa·s and 2.113 mPa·s
323.15 K, 100 kPa | 1.927 mPa·s
323.15 K, 101 kPa | 1.806 mPa·s
323.15 K, 101.3 kPa | 1.87 mPa·s
323.15 K, 101.33 kPa | 2.01 mPa·s

CC1OC(C)OC(C)O1 (stereo not given)
Details | viscosity [mPa·s]
293.15 K, 101.3 kPa | 1.224

CCOC(=O)CCCBr
Details | viscosity [mPa·s]
303.15 K, 101 kPa | 1.826

CCNCC
Details | viscosity
293.15 K, 100 kPa | 0.32 mPa·s and 0.32 mPa·s
293.15 K, 101.33 kPa | 0.32 mPa·s
298.15 K, 101 kPa | 0.29 mPa·s and 0.265 mPa·s
303.15 K, 101.33 kPa | 0.288 mPa·s
308.15 K, 101 kPa | 0.2466 mPa·s
308.15 K, 101.33 kPa | 0.274 mPa·s
313.15 K, 100 kPa | 0.26 mPa·s and 0.26 mPa·s
318.15 K, 100 kPa | 0.248 mPa·s
323.15 K, 100 kPa | 0.237 mPa·s and 0.237 mPa·s

CCCCCCCC(=O)[O-].c1c[nH+]c[nH]1
101.3 kPa
Details | viscosity [mPa·s]
293.15 K | 88.48
298.15 K | 71.27
303.15 K | 56.48
308.15 K | 45.3
313.15 K | 36.92
318.15 K | 30.56
323.15 K | 25.33

CCCC(=O)OC
101 kPa
Details | viscosity [mPa·s]
298.15 K | 0.546
323.15 K | 0.374

COCCOCCOCCO
viscosity
Details | 293.15 K | 298.15 K | 303.15 K | 308.15 K | 313.15 K | 318.15 K | 323.15 K
101 kPa | 7.211 mPa·s | 6.287 mPa·s and 6.254 mPa·s | 5.412 mPa·s | 4.535 mPa·s | – | 3.726 mPa·s | –
101.33 kPa | – | – | – | 4.642 mPa·s and 5.055 mPa·s | 4.074 mPa·s and 4.08 mPa·s | – | 3.202 mPa·s and 3.2 mPa·s

COP(=O)([O-])OC.Cn1cc[n+](C)c1
viscosity [mPa·s]
Details | 293.15 K | 298.15 K | 303.15 K | 308.15 K | 313.15 K | 318.15 K | 323.15 K
101 kPa | 415.9 | 290.8 | 210.1 | 155.6 | 119.2 | 92.77 | 74.24
101.33 kPa | – | – | – | 139.5 | – | – | –

CCC(O)CO (stereo not given)
viscosity [mPa·s]
Details | 298.15 K | 303.15 K | 308.15 K | 313.15 K | 318.15 K | 323.15 K
100 kPa | 51.63 | 37.66 | 28.44 | 21.59 | 16.74 | 13.22
101 kPa | 52.8 | 38.71 | 29.48 | 22.86 | – | 12.85

COCCOCCOCCOC
viscosity [mPa·s]
Details | 298.15 K | 308.15 K
101 kPa | 1.979 | 1.607
101.33 kPa | 1.95 | –

CCCCCCCCNCCCCCCCC
Details | viscosity [mPa·s]
303.15 K, 101 kPa | 3.665

COCCOCCOCCO + CCCN
[1], 298.15 K, 101 kPa
Details | viscosity [mPa·s]
x1 = 0.0053 | 0.369
x1 = 0.0087 | 0.378
x1 = 0.0251 | 0.415
x1 = 0.0368 | 0.44
x1 = 0.068 | 0.514
x1 = 0.081 | 0.549
x1 = 0.105 | 0.617
x1 = 0.1254 | 0.682
x1 = 0.1752 | 0.861
x1 = 0.2146 | 1.034
x1 = 0.2627 | 1.279
x1 = 0.2934 | 1.456
x1 = 0.3347 | 1.724
x1 = 0.3651 | 1.935
x1 = 0.4217 | 2.362
x1 = 0.471 | 2.749
x1 = 0.5445 | 3.35
x1 = 0.574 | 3.599
x1 = 0.6281 | 4.032
x1 = 0.6683 | 4.359
x1 = 0.7088 | 4.66
x1 = 0.7716 | 5.104
x1 = 0.812 | 5.359
x1 = 0.8595 | 5.626
x1 = 0.8867 | 5.774
x1 = 0.9185 | 5.92

CN(CCO)CCO + CCCCn1cc[n+](C)c1.F[B-](F)(F)F
Details | viscosity [mPa·s]
[1], 323.15 K, 101 kPa, x2 = 0.6997 | 20.65

CCCC(=O)OC + c1ccccc1
viscosity [mPa·s], [1], 101 kPa
Details | x2 = 0.1316 | x2 = 0.1994 | x2 = 0.2999 | x2 = 0.3974 | x2 = 0.5001 | x2 = 0.6023 | x2 = 0.7044 | x2 = 0.7999 | x2 = 0.8939
298.15 K | 0.536 | 0.534 | 0.535 | 0.536 | 0.54 | 0.544 | 0.551 | 0.561 | 0.575
313.15 K | 0.451 | 0.45 | 0.45 | 0.451 | 0.453 | 0.456 | 0.46 | 0.466 | 0.476

COCCOCCOCCOC + CCOC(=O)OCC
[1], 298.15 K, 101.33 kPa
Details | viscosity [mPa·s]
x1 = 0.0103 | 0.759
x1 = 0.0175 | 0.767
x1 = 0.0246 | 0.775
x1 = 0.0367 | 0.788
x1 = 0.0576 | 0.813
x1 = 0.0787 | 0.837
x1 = 0.0958 | 0.856
x1 = 0.119 | 0.879
x1 = 0.1509 | 0.913
x1 = 0.1983 | 0.966
x1 = 0.2499 | 1.021
x1 = 0.3024 | 1.081
x1 = 0.3233 | 1.105
x1 = 0.3543 | 1.142
x1 = 0.4034 | 1.199
x1 = 0.4614 | 1.268
x1 = 0.5022 | 1.324
x1 = 0.552 | 1.386
x1 = 0.6112 | 1.463
x1 = 0.6561 | 1.519
x1 = 0.7044 | 1.583
x1 = 0.7371 | 1.624
x1 = 0.7905 | 1.693
x1 = 0.8464 | 1.764
x1 = 0.9175 | 1.85
x1 = 0.951 | 1.894

From the CheMixHub viscosity set
